Assay results reported in patent publication US20150093398A1, “Methods and Compositions for Treating or Preventing Cancer” (MERCK SHARP & DOHME CORP., priority 2005, published 2015).

Key:
[1] = tested on: SK-N-AS neuroblatoma cells; test: SK-N-AS neuroblastoma xenograft tumor growth in mice (03 IGFR-09, 19D12 vs. Cytoxan); format: in vivo, Athymic nude mice; details: 100 mpk Cytoxan
Protocol: (§1) Athymic nude mice were inoculated with tumor cells in the right flank, subcutaneously, along with Matrigel (1:1 cells:gel). In these experiments, 5×10^6 cells/mouse in a 1:1 mix with regular matrigel were inoculated subcutaneously. Tumor size was measured with calipers and the data was entered into the labcat program. Mice were grouped with average size of 100 mm^3. Tumor size and body weight were measured twice weekly.
(§2) In these experiments, mice were dosed twice per week, intraperitoneally (i.p.) with antibody 19D12 and chemotherapeutic agents at the indicated frequency. Tumor size and mouse body weight was measured twice weekly after treatment.

[2] = tested on: SJCRH30 rhabdomyosarcoma cells; test: SJCRH30 rhabdomyosarcoma xenograft tumor growth in mice (05 IGFR-01, 19D12 and Cytoxan); format: in vivo, Athymic nude mice; details: 100 mpk Cytoxan
Protocol: as §1, §2

[3] = tested on: SJSA-1 osteosarcoma cells; test: SJSA-1 osteosarcoma xenograft model (05-IGFR-12), dosing from day 18 post inoculation; format: in vivo, female nude mouse (strain NU/NU); details: 100 mpk Cytoxan
Protocol: About 7 million SJSA-1 osteosarcoma cells were inoculated subcutaneously to the flank of each female nude mouse (strain NU/NU from Charles River, age ˜6 wks-old, average weight ˜20 gram). For the experiment set forth in Table 8, dosing was initiated on day 18 post inoculation, when the xenograft tumor reached an average size of about 100 mm^3. Anti-IGF1R antibody (19D12 Light chain F/Heavy chain A (as set forth above)) was given ip twice a week at the dose of either 0.02 mg, 0.1 and 0.5 mg per mouse, while cytotoxic Cytoxan (cyclophosphamide) was given ip twice per week at the dose of 100 mpk for a total of 3 injection during the course of the study. Xenograft tumor size was measured twice per week with a caliper and captured electronically by the LabCat program.

[4] = tested on: SJSA-1 osteosarcoma cells; test: SJSA-1 osteosarcoma xenograft model (05-IGFR-21), dosing from 15 days after inoculation; format: in vivo, female nude mouse (strain NU/NU)
Protocol: Xenograft tumor size was measured twice per week with a caliper and captured electronically by the LabCat program. […] For the experiments set forth in Table 9, dosing was initiated 15 days after inoculation. […] Xenograft tumor size was measured twice per week with a caliper and captured electronically by the LabCat program.

[5] = tested on: Hs700T malignant pancreatic cells; test: Hs700T pancreatic xenograft tumor growth in mice (04 IGFR-16, 19D12 and Gemzar combination);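 further: subcutaneous flank xenografts in athymic nude mice, treated once tumors averaged 100 mm^3, antibody given intraperitoneally twice weekly, tumor size measured by calipers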
Protocol: as §1, §2

[6] = tested on: SK-N-MC neuroblastoma cells; test: SK-N-MC neuroblastoma xenograft tumor growth in mice (04 IGFR-13, 19D12 vs. Cisplatin); format: in vivo, Athymic nude mice; details: Cisplatin 2 mpk

O=P1(N(CCCl)CCCl)NCCCO1 (stereo not drawn) [Cytoxan, cyclophosphamide, reference compound]
Tumor Average Size ([1]; Day 4): 257 mm^3
Tumor Average Size ([1]; Day 7): 227 mm^3
Tumor Average Size ([1]; Day 11): 111 mm^3
Tumor Average Size ([1]; Day -1): 122 mm^3
Tumor Average Size ([2]; Day 0): 75 mm^3
Tumor Average Size ([2]; Day 4): 125 mm^3
Tumor Average Size ([2]; Day 7): 232 mm^3
Tumor Average Size ([2]; Day 11): 347 mm^3
Tumor Average Size ([2]; Day 14): 591 mm^3
Tumor Average Size ([2]; Day 18): 733 mm^3
Mean Tumor size ([3]; Day 0): 96 mm3
Mean Tumor size ([3]; Day 3): 111 mm3
Mean Tumor size ([3]; Day 7): 102 mm3
Mean Tumor size ([3]; Day 10): 59 mm3
Mean Tumor size ([3]; Day 14): 140 mm3
Mean Tumor size ([3]; Day 17): 172 mm3
Mean Tumor size ([3]; Day 21): 302 mm3
Mean Tumor size ([3]; Day 24): 586 mm3
Mean Tumor size ([3]; Day 28): 972 mm3
Mean Tumor size ([4]; 50 mpk Cytoxan, Day 0): 145 mm3
Mean Tumor size ([4]; 50 mpk Cytoxan, Day 4): 198 mm3
Mean Tumor size ([4]; 50 mpk Cytoxan, Day 7): 287 mm3
Mean Tumor size ([4]; 50 mpk Cytoxan, Day 11): 614 mm3
Mean Tumor size ([4]; 50 mpk Cytoxan, Day 14): 908 mm3
Mean Tumor size ([4]; 100 mpk Cytoxan, Day 0): 149 mm3
Mean Tumor size ([4]; 100 mpk Cytoxan, Day 4): 132 mm3
Mean Tumor size ([4]; 100 mpk Cytoxan, Day 7): 193 mm3
Mean Tumor size ([4]; 100 mpk Cytoxan, Day 11): 218 mm3
Mean Tumor size ([4]; 100 mpk Cytoxan, Day 14): 285 mm3

Cl.Nc1ccn(C2OC(CO)C(O)C2(F)F)c(=O)n1 (stereo not drawn) [Gemzar, gemcitabine, reference compound]
Tumor Average Size ([5]; 100 mpk Gemzar, Day 0): 77 mm^3
Tumor Average Size ([5]; 100 mpk Gemzar, Day 4): 86 mm^3
Tumor Average Size ([5]; 100 mpk Gemzar, Day 7): 98 mm^3
Tumor Average Size ([5]; 100 mpk Gemzar, Day 11): 105 mm^3
Tumor Average Size ([5]; 100 mpk Gemzar, Day 14): 119 mm^3
Tumor Average Size ([5]; 100 mpk Gemzar, Day 18): 148 mm^3
Tumor Average Size ([5]; 100 mpk Gemzar, Day 21): 166 mm^3
Tumor Average Size ([5]; 100 mpk Gemzar, Day 26): 249 mm^3
Tumor Average Size ([5]; 100 mpk Gemzar, Day 29): 284 mm^3
Tumor Average Size ([5]; 100 mpk Gemzar, Day 33): 324 mm^3
Tumor Average Size ([5]; 100 mpk Gemzar, Day 36): 368 mm^3

N.N.[Cl][Pt][Cl] [Cisplatin, cisplatin, reference compound]
Tumor Average Size ([6]; Day 0): 99 mm^3
Tumor Average Size ([6]; Day 2): 131 mm^3
Tumor Average Size ([6]; Day 6): 174 mm^3
Tumor Average Size ([6]; Day 9): 212 mm^3
Tumor Average Size ([6]; Day 13): 264 mm^3
Tumor Average Size ([6]; Day 16): 288 mm^3
Tumor Average Size ([6]; Day 20): 299 mm^3
Tumor Average Size ([6]; Day 23): 352 mm^3
Tumor Average Size ([6]; Day 24): 352 mm^3
Tumor Average Size ([5]; 5 mpk Cisplatin, Day 0): 79 mm^3
Tumor Average Size ([5]; 5 mpk Cisplatin, Day 4): 87 mm^3
Tumor Average Size ([5]; 5 mpk Cisplatin, Day 7): 96 mm^3
Tumor Average Size ([5]; 5 mpk Cisplatin, Day 11): 99 mm^3
Tumor Average Size ([5]; 5 mpk Cisplatin, Day 14): 100 mm^3
Tumor Average Size ([5]; 5 mpk Cisplatin, Day 18): 107 mm^3
Tumor Average Size ([5]; 5 mpk Cisplatin, Day 21): 113 mm^3
Tumor Average Size ([5]; 5 mpk Cisplatin, Day 26): 155 mm^3
Tumor Average Size ([5]; 5 mpk Cisplatin, Day 29): 175 mm^3
Tumor Average Size ([5]; 5 mpk Cisplatin, Day 33): 185 mm^3
Tumor Average Size ([5]; 5 mpk Cisplatin, Day 36): 173 mm^3
